Data on 24 compounds can be found in patent US8563730B2, “Pyrazole and fused pyrazole glucokinase activators” (Takeda San Diego, Inc., priority 2008, dated 2013).

Where two headings read alike, the source gives them in different places.

This experiment addresses T1, GK (glucokinase, residues 12-465) (Homo sapiens, UniProt P35557).
T1 construct: I.D. No. 1 corresponds to residues 12-465 of glucokinase; made in house; host or cells: DH10b-T1r E. coli
T1 sequence (P35557 with tags, fused parts or gaps isoform P35557-2): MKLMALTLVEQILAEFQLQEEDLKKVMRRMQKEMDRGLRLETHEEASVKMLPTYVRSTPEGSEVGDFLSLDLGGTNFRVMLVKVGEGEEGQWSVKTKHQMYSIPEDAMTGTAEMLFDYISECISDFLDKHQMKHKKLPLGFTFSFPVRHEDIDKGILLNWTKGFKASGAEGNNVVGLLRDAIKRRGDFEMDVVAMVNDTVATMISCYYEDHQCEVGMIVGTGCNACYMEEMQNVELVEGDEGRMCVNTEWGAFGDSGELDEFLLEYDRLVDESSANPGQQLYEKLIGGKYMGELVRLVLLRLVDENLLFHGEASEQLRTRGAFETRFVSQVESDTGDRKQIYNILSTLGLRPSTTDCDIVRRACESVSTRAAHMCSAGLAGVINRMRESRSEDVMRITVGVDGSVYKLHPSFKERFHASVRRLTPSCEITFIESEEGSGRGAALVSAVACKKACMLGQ
The experiment in a line: enzymatic glucokinase activity assay (ATP consumption, KinaseGlo luminescence). The class given is biochemical. Conditions: 5 μM ATP, 5 mM Glucose, reported as bins; for EC50: Kact = concentration that displays 50% of the maximal increase in GK activity, 60 min, room temperature, read-out: pKact. Put shortly: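 E. coli-expressed recombinant GK purified by two anion-exchange steps. Reaction in 25 mM Hepes pH 7.2, 10 mM MgCl2, 1 mM DTT, 5 μM ATP, 5 mM glucose, 2% DMSO, 60 min at room temperature. ATP consumption quantified by KinaseGlo luminescence; pKact and % ACTmax derived by non-linear curve fitting.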

Where [1] appears, read: calculated maximal gain in GK enzyme activity at a saturating concentration of the compound, read-out: % ACTmax.

Take `Cn1ccc(NC(=O)C(CC2CCOCC2)n2ncc3c(S(=O)(=O)C4CC4)cc(N)nc32)n1` (stereo not drawn) [Compound 170, 2-(6-amino-4-(cyclopropylsulfonyl)-1H-pyrazolo[3,4-b]pyridin-1-yl)-N-(1-methyl-1H-pyrazol-3-yl)-3-(tetrahydro-2H-pyran-4-yl)propanamide]: the EC50 is at least 15800 nM. Further, the Emax under setting [1] was at most 90%.

For `O=C(Nc1ncc(F)s1)C(CC1CCOCC1)n1ncc2c(S(=O)(=O)C3CC3)cc(F)cc21` (stereo not drawn) [Compound 115, 2-(4-(cyclopropylsulfonyl)-6-fluoro-1H-indazol-1-yl)-H-(5-fluorothiazol-2-yl)-3-(tetrahydro-2H-pyran-4-yl)propanamide], the EC50 was at most 316 nM. Also, the Emax under setting [1] is 106 to 110%.

Consider `N#Cc1cc(S(=O)(=O)C2CC2)c2cnn([C@@H](CC3CCOCC3)C(=O)Nc3ncc(F)s3)c2c1` [Compound 133, (S)-2-(6-cyano-4-(cyclopropylsulfonyl)-1H-indazol-1-yl)-N-(5-fluorothiazol-2-yl)-3-(tetrahydro-2H-pyran-4-yl)propanamide], for which the EC50 is at most 316 nM. Further, under setting [1], the Emax is 101 to 105%.

`N#Cc1cc(S(=O)(=O)C2CC2)c2cnn([C@H](CC3CCOCC3)C(=O)Nc3ncc(F)s3)c2c1` [Compound 132, (R)-2-(6-cyano-4-(cyclopropylsulfonyl)-1H-indazol-1-yl)-N-(5-fluorothiazol-2-yl)-3-(tetrahydro-2H-pyran-4-yl)propanamide]: the EC50 was in the range of 1580 to 3160 nM. Moreover, the Emax under setting [1] is 90 to 100%.

As to `O=C(Nc1ncc(F)s1)C(CC1CCOCC1)n1ncc2c(S(=O)(=O)C3CC3)c(Cl)ccc21` (stereo not drawn) [Compound 22, 2-(5-chloro-4-(cyclopropylsulfonyl)-1H-indazol-1-yl)-N-(5-fluorothiazol-2-yl)-3-(tetrahydro-2H-pyran-4-yl)propanamide], the EC50 was at most 316 nM. Under setting [1], the Emax is at least 111%.

For `O=C(Nc1ncc(F)s1)C(CC1CCOCC1)n1ncc2c(S(=O)(=O)C3CC3)c(OC(F)F)ccc21` (stereo not drawn) [Compound 87, 2-(4-(cyclopropylsulfonyl)-5-(difluoromethoxy)-1H-indazol-1-yl)-N-(5-fluorothiazol-2-yl)-3-(tetrahydro-2H-pyran-4-yl)propanamide], the EC50 was in the range of 1580 to 3160 nM. The Emax under setting [1] is 90 to 100%.

For `O=C(Nc1ncc(F)s1)C(CC1CCCC1)n1cc(S(=O)(=O)C2CC2)cn1` (stereo not drawn) [Compound 34, 3-cyclopentyl-2-(4-(cyclopropylsulfonyl)-1H-pyrazol-1-yl)-N-(5-fluorothiazol-2-yl)propanamide], the EC50 was in the range of 1580 to 3160 nM. Also, the Emax under setting [1] is at least 111%.

In the case of `O=C1CC[C@H](C[C@@H](C(=O)Nc2ncc(F)s2)n2cc(S(=O)(=O)C3CC3)cn2)C1` [Compound 54, (S)-2-(4-(cyclopropylsulfonyl)-1H-pyrazol-1-yl)-N-(5-fluorothiazol-2-yl)-3-((R)-3-oxocyclopentyl)propanamide], the EC50 lay within 3980 to 12600 nM. Also, the Emax under setting [1] is at most 90%.

As to `O=C(Nc1ncc(F)s1)C(CC1CCOCC1)n1ncc2c(S(=O)(=O)C3CC3)c(O)ccc21` (stereo not drawn) [Compound 144, 2-(4-(cyclopropylsulfonyl)-5-hydroxy-1H-indazol-1-yl)-N-(5-fluorothiazol-2-yl)-3-(tetrahydro-2H-pyran-4-yl)propanamide], the EC50 was at most 316 nM. Besides, under setting [1], the Emax is 106 to 110%.

For `O=C1CC[C@H](C[C@H](C(=O)Nc2cnccn2)n2ncc3c(S(=O)(=O)C4CC4)cccc32)C1` [Compound 75, (R)-2-(4-(cyclopropylsulfonyl)-1H-indazol-1-yl)-3-((R)-3-oxocyclopentyl)-N-(pyrazin-2-yl)propanamide], the EC50 was in the range of 398 to 1260 nM. Further, under setting [1], the Emax is 90 to 100%.

Regarding `COc1ccc2c(cnn2C(CC2CCOCC2)C(=O)Nc2cnccn2)c1S(=O)(=O)C1CC1` (stereo not drawn) [Compound 91, 2-(4-(cyclopropylsulfonyl)-5-methoxy-1H-indazol-1-yl)-N-(pyrazin-2-yl)-3-(tetrahydro-2H-pyran-4-yl)propanamide], the EC50 lay in the range of 398 to 1260 nM. Also, under setting [1], the Emax was 101 to 105%.

For `O=C(Nc1ncc(F)s1)[C@H](CC1CCOCC1)n1cc(S(=O)(=O)C2CCCC2)cn1` [Compound 44, (S)-2-(4-(cyclopentylsulfonyl)-1H-pyrazol-1-yl)-N-(5-fluorothiazol-2-yl)-3-(tetrahydro-2H-pyran-4-yl)propanamide], the EC50 was in the range of 398 to 1260 nM. For the same compound, the Emax under setting [1] was at least 111%.

For the compound `O=C(Nc1ncc(F)s1)[C@H](CC1CCOCC1)n1ncc2c(S(=O)(=O)C3CC3)cncc21` [Compound 84, (S)-2-(4-(cyclopropylsulfonyl)-1H-pyrazolo[3,4-c]pyridin-1-yl)-N-(5-fluorothiazol-2-yl)-3-(tetrahydro-2H-pyran-4-yl)propanamide], the EC50 is at most 316 nM. The Emax (read-out: % ACTmax, calculated maximal gain in GK enzyme activity at a saturating concentration of the compound) is 106 to 110%.

As for `Cn1ccc(NC(=O)C(CC2CCOCC2)n2ncc3c(S(=O)(=O)C4CC4)cc(Cl)cc32)n1` (stereo not drawn) [Compound 101, 2-(6-chloro-4-(cyclopropylsulfonyl)-1H-indazol-1-yl)-N-(1-methyl-1H-pyrazol-3-yl)-3-(tetrahydro-2H-pyran-4-yl)propanamide], the EC50 lay within 398 to 1260 nM. Moreover, the Emax under setting [1] was 90 to 100%.

On to `Cc1nn(C(CC2CCOCC2)C(=O)Nc2ncc(F)s2)c(C)c1S(=O)(=O)C1CC1` (stereo not drawn) [Compound 27, 2-(4-(cyclopropylsulfonyl)-3,5-dimethyl-1H-pyrazol-1-yl)-N-(5-fluorothiazol-2-yl)-3-(tetrahydro-2H-pyran-4-yl)propanamide], for which the EC50 is 1580 to 3160 nM. In addition, the Emax under setting [1] is at most 90%.

Turning to `COc1ccc2nc(NC(=O)[C@H](CC3CCOCC3)n3ccc(S(=O)(=O)C4CC4)n3)sc2n1` [Compound 2, (S)-2-(3-(cyclopropylsulfonyl)-1H-pyrazol-1-yl)-N-(5-methoxythiazolo[5,4-b]pyridin-2-yl)-3-(tetrahydro-2H-pyran-4-yl)propanamide], the EC50 is at least 15800 nM. Under setting [1], the Emax is at most 90%.

`O=C(Nc1ncc(Cl)s1)[C@@H](CC1CCOCC1)n1ncc2c(S(=O)(=O)C3CC3)cccc21` [Compound 63, (R)-N-(5-chlorothiazol-2-yl)-2-(4-(cyclopropylsulfonyl)-1H-indazol-1-yl)-3-(tetrahydro-2H-pyran-4-yl)propanamide]: the EC50 lay in the range of 3980 to 12600 nM. Moreover, the Emax under setting [1] is at least 111%.

Regarding `O=C1CC[C@H](C[C@@H](C(=O)Nc2cnccn2)n2ncc3c(S(=O)(=O)C4CC4)cccc32)C1` [Compound 74, (S)-2-(4-(cyclopropylsulfonyl)-1H-indazol-1-yl)-3-((R)-3-oxocyclopentyl)-N-(pyrazin-2-yl)propanamide], the EC50 was in the range of 1580 to 3160 nM. The Emax under setting [1] was 90 to 100%.

Regarding `O=C1CC[C@H](CC(C(=O)Nc2cnccn2)n2ncc3c(S(=O)(=O)C4CC4)cccc32)C1` (stereo partly drawn) [Compound 71, 2-(4-(cyclopropylsulfonyl)-1H-indazol-1-yl)-3-((R)-3-oxocyclopentyl)-N-(pyrazin-2-yl)propanamide], the EC50 was 1580 to 3160 nM. Moreover, the Emax under setting [1] is at most 90%.

For `COc1cc(S(=O)(=O)C2CC2)c2cnn([C@@H](CC3CCOCC3)C(=O)Nc3ncc(F)s3)c2c1` [Compound 128, (S)-2-(4-(cyclopropylsulfonyl)-6-methoxy-1H-indazol-1-yl)-N-(5-fluorothiazol-2-yl)-3-(tetrahydro-2H-pyran-4-yl)propanamide], the EC50 is at most 316 nM. Besides, under setting [1], the Emax is 90 to 100%.

For `Nc1cc(S(=O)(=O)C2CC2)c2cnn([C@@H](CC3CCOCC3)C(=O)Nc3cnccn3)c2n1` [Compound 164, (S)-2-(6-amino-4-(cyclopropylsulfonyl)-1H-pyrazolo[3,4-b]pyridin-1-yl)-N-(pyrazin-2-yl)-3-(tetrahydro-2H-pyran-4-yl)propanamide], the EC50 fell in the range of 398 to 1260 nM. Also, the Emax under setting [1] is 106 to 110%.

Consider `O=C(Nc1cnccn1)C(CC1CCOCC1)n1cc2c(S(=O)(=O)C3CC3)c(F)ccc2n1` (stereo not drawn) [Compound 156, 2-(4-(cyclopropylsulfonyl)-5-fluoro-2H-indazol-2-yl)-N-(pyrazin-2-yl)-3-(tetrahydro-2H-pyran-4-yl)proanamide], for which the EC50 was at most 316 nM. The Emax under setting [1] was 101 to 105%.

For the compound `CC(C)(C)S(=O)(=O)c1cnn([C@@H](CC2CCOCC2)C(=O)Nc2ncc(F)s2)c1` [Compound 53, (S)-2-(4-(tert-butylsulfonyl)-1H-pyrazol-1-yl)-N-(5-fluorothiazol-2-yl)-3-(tetrahydro-2H-pyran-4-yl)propanamide], the EC50 is at least 15800 nM. Besides, under setting [1], the Emax was at most 90%.

Consider `O=C(Nc1ncc(Cl)s1)C(CC1CCOCC1)n1ncc2ccc(S(=O)(=O)C3CC3)cc21` (stereo not drawn) [Compound 60, N-(5-chlorothiazol-2-yl)-2-(6-(cyclopropylsulfonyl)-1H-indazol-1-yl)-3-(tetrahydro-2H-pyran-4-yl)propanamide], for which the EC50 is at least 15800 nM. Besides, the Emax under setting [1] was at most 90%.
